# Experimental data from ChEMBL document CHEMBL3352310, “A perspective on targeting non-structural proteins to combat neglected tropical diseases: Dengue, West Nile and Chikungunya viruses” (Eur J Med Chem, 2014).
# Peptide text beside a SMILES is read from it. * marks the point of attachment. Bz = O=C(c1ccccc1)*
# Assays:
# [1] = biological target: Genome polyprotein (dengue virus type 2, UniProt P12823); assay: Inhibition of dengue virus-2 NS2B-NS3 protease
# [2] = tested on: dengue virus type 1; assay: Antiviral activity against Dengue virus 1; assay type: functional, organism-based
# [3] = tested on: dengue virus type 2; assay: Antiviral activity against Dengue virus 2; assay type: functional, organism-based
# [4] = tested on: dengue virus type 3; assay: Antiviral activity against Dengue virus 3; assay type: functional, organism-based
# [5] = tested on: dengue virus type 4; assay: Antiviral activity against Dengue virus 4; assay type: functional, organism-based
# [6] = biological target: T1, Genome polyprotein (dengue virus type 2, UniProt Q91H74); assay: Inhibition of dengue virus-1 NS2B-NS3 protease; design: species or system dengue virus type 1
# [7] = biological target: T1, Genome polyprotein; assay: Inhibition of dengue virus-3 NS2B-NS3 protease; design: species or system dengue virus type 3
# [8] = biological target: T1, Genome polyprotein; assay: Inhibition of dengue virus-4 NS2B-NS3 protease; design: species or system dengue virus type 4
# [9] = biological target: T1, Genome polyprotein; assay: Inhibition of dengue virus NS2B-NS3 protease
# [10] = tested on: Chikungunya virus; assay: Antiviral activity against Chikungunya virus assessed as inhibition of viral replication; assay type: functional
# [11] = Inhibition of Dengue virus-3 N7-methyltransferase; design: species or system dengue virus type 3
# [12] = Inhibition of Dengue virus-3 2'-O-methyltransferase; design: species or system dengue virus type 3
# [13] = Inhibition of Dengue virus RNA-directed RNA polymerase NS5
# [14] = biological target: T2, Genome polyprotein (West Nile virus, UniProt P06935); assay: Inhibition of West Nile virus NS2B-NS3 protease
# [15] = tested on: Dengue virus; assay: Antiviral activity against Dengue virus assessed as inhibition of viral replication; assay type: functional, organism-based
# [16] = biological target: T2, Genome polyprotein; assay: Non-competitive inhibition of West Nile virus NS2B-NS3 protease
# [17] = tested on: Dengue virus; assay: Antiviral activity against Dengue virus assessed as inhibition of viral RNA replication; assay type: functional, organism-based
# [18] = tested on: Dengue virus; assay: Antiviral activity against Dengue virus; assay type: functional, organism-based
smiles,measurement,setting,value
N#Cc1ccc(OC(=O)c2ccc(NC(=N)N)cc2)cc1,IC50,[1],37900 nM
same,Ki,[1],31100 nM
O=C1c2c(O)ccc([N+](=O)[O-])c2C(=O)c2c([N+](=O)[O-])ccc(O)c21,EC50,[2],5960 nM
same,EC50,[3],440 nM
same,EC50,[4],3080 nM
same,EC50,[5],880 nM
Cc1ccc(S(=O)(=O)Nc2cc(SCC(=O)O)c(O)c3ccccc23)cc1[N+](=O)[O-],EC50,[2],970 nM
same,EC50,[3],980 nM
same,EC50,[4],2430 nM
same,EC50,[5],740 nM
N=C(N)Nc1ccc(O[C@H]2C[C@@H](Oc3ccc(NC(=N)N)cc3NC(=N)N)[C@H](NC(=N)N)C[C@@H]2NC(=N)N)c(NC(=N)N)c1,IC50,[1],1000 nM
same,IC50,[6],1000 nM
same,IC50,[7],1000 nM
same,IC50,[8],1000 nM
COc1ccc(-c2nnc(C(Cc3ccccc3)n3sc4ccccc4c3=O)o2)cc1 (stereo not drawn),IC50,[9],3750 nM
CCOc1ccc(/C=N/NC(=O)/C=C/c2ccc(C(C)(C)C)cc2)cc1OCC,IC50,[10],3200 nM
N=C(N)Nc1ccc(OC(=O)c2ccc(NC(=N)N)cc2)cc1,IC50,[1],7700 nM
same,Ki,[1],2000 nM
NC(CCSC[C@H]1O[C@@H](n2ccc3c(NCc4cccc(Cl)c4)ncnc32)C(O)C1O)C(=O)O (stereo partly drawn),Ki,[11],820 nM
same,Ki,[12],170 nM
O=c1cc(-c2ccc(Oc3c(O)cc4occ(-c5ccc(O)cc5)c(=O)c4c3O)cc2)oc2cc(O)cc(O)c12,IC50,[13],260 nM
COc1ccc(-c2coc3c(-c4cc(-c5cc(=O)c6c(O)cc(O)cc6o5)ccc4O)c(O)cc(O)c3c2=O)cc1,IC50,[13],750 nM
N=C(N)NCCC[C@H](NC(=O)[C@H](CCCCN)NC(=O)[C@H](CCCCN)NC(=O)C1CC1)C(=O)O,IC50,[14],380 nM
O=c1c(OC2O[C@H](CO)[C@@H](O)[C@H](O)[C@H]2O)c(-c2ccc(OC3O[C@H](CO)[C@@H](O)[C@H](O)[C@H]3O)c(O)c2)oc2cc(O)cc(O)c12 (stereo partly drawn),IC50,[15],1700 nM
Oc1c(C(Nc2nccs2)c2cccc(OCc3ccccc3)c2)ccc2cccnc12 (stereo not drawn),IC50,[14],2010 nM
CCc1ccc(NC(=O)CSc2nc3ccc(NC(=O)CSc4nnc(-c5ccccc5)n4C)cc3s2)cc1,IC50,[14],3400 nM
Cc1ccc2c(c1)-c1c(=O)nc(SCc3ccccc3)[nH][n+]1C(c1ccc(Cl)cc1)N2 (stereo not drawn),IC50,[16],5410 nM
CCCSc1nnc(N2C(=O)C(O)=C(C(=O)c3ccc(Cl)cc3)C2c2ccc(Cl)cc2)s1 (stereo not drawn),IC50,[16],2200 nM
CC(C)C[C@@H]1NC(=O)[C@H](CCCN)NC(=O)[C@H](C(C)C)NC(=O)[C@H](Cc2ccc(O)cc2)N[C@@H](CCC(=O)O)C(=O)N[C@@H](CC(N)=O)C(=O)[C@@H](Cc2ccccc2)NC(=O)[C@H](Cc2ccccc2)NC(=O)[C@@H]2CCCN2C(=O)[C@@H](Cc2ccccc2)NC1=O,Ki,[14],2000 nM
N=C(N)N[C@H]1CC[C@H](CNC(=O)[C@H](CCCCN)NC(=O)[C@H](CCCCN)NC(=O)Cc2ccc(Cl)c(Cl)c2)CC1,Ki,[14],130 nM
O=c1cc(-c2ccccc2)oc2ccc(-c3cn[nH]n3)cc12,IC50,[9],69000 nM
Cc1cc(C)c2c(c1)OC(c1ccc(N(C)C)cc1)CC2=O (stereo not drawn),IC50,[9],121000 nM
Cc1ccc(C(NN=C(N)N)[PH](=O)O)cc1 (stereo not drawn),IC50,[9],14000 nM
N=C(N)NCCC[C@H](NC(=O)[C@H](CCCCN)NC(=O)[C@H](CCCCN)NC(=O)c1ccccc1)C(=O)O (Bz-Lys-Lys-Arg-OH),IC50,[14],420 nM
NC(=O)[C@H](Cc1c[nH]c2ccccc12)NC(=O)[C@H](CS)NC(=O)[C@H](Cc1ccc(O)cc1)NC(=O)[C@@H](N)Cc1c[nH]c2ccccc12 (H-WYCW-NH2),Ki,[1],4800 nM
same,Ki,[6],4200 nM
same,Ki,[7],24400 nM
same,Ki,[8],11200 nM
O=c1c(O[C@@H]2O[C@@H](CO)[C@H](O)[C@H]2O)c(-c2ccc(O)c(O)c2)oc2cc(O)cc(O)c12 [AVICULARIN],IC50,[15],1700 nM
C=C(C)[C@@H]1CC[C@]2(C(=O)O)CC[C@]3(C)[C@H](CC[C@@H]4[C@@]5(C)CC[C@H](O)C(C)(C)[C@@H]5CC[C@]43C)[C@@H]12 [BETULINIC ACID],IC50,[15],1700 nM
Cc1nc(Nc2ncc(C(=O)Nc3c(C)cccc3Cl)s2)cc(N2CCN(CCO)CC2)n1 [DASATINIB],EC50,[17],110 nM
O=c1c(O[C@@H]2O[C@H](CO)[C@H](O)[C@H](O)[C@H]2O)c(-c2ccc(O)c(O)c2)oc2cc(O)cc(O)c12 [HYPEROSIDE],IC50,[15],1700 nM
COc1cc2c(cc1OC)-c1cc3ccc(OC)c(OC)c3c[n+]1CC2 [PALMITINE],IC50,[16],96000 nM
C[C@@H]1O[C@@H](Oc2c(-c3ccc(O)c(O)c3)oc3cc(O)cc(O)c3c2=O)[C@H](O)[C@H](O)[C@H]1O [QUERCITRIN],IC50,[15],1700 nM
NC(=O)c1ncn([C@@H]2O[C@H](CO)[C@@H](O)[C@H]2O)n1 [RIBAVIRIN],EC50,[18],49000 nM
C[C@@H]1O[C@@H](OC[C@H]2O[C@@H](Oc3c(-c4ccc(O)c(O)c4)oc4cc(O)cc(O)c4c3=O)[C@H](O)[C@@H](O)[C@@H]2O)[C@H](O)[C@H](O)[C@H]1O [RUTIN],IC50,[15],1700 nM
CN1CCN(CCOc2cc(OC3CCOCC3)c3c(Nc4c(Cl)ccc5c4OCO5)ncnc3c2)CC1 [SARACATINIB],EC50,[17],1600 nM
O=c1c(O)c(-c2ccc(O[C@@H]3O[C@H](CO)[C@@H](O)[C@H](O)[C@H]3O)c(O)c2)oc2cc(O)cc(O)c12 [SPIRAEOSIDE],IC50,[15],1700 nM
